Test results taken from EP4778519A1, “THERAPEUTIC OR PROPHYLACTIC AGENT FOR FRONTOTEMPORAL LOBAR DEGENERATION ACCOMPANIED BY ACCUMULATION OF TDP-43 (FTLD-TDP)” (Socium Inc., priority 2023, dated 2025).
“Also recorded” adds a separate entry of the source. Read-outs that look alike come from different tables or passages of the source.

Columns and labels:
[1] = Reported human pharmacokinetics of D-cycloserine (literature); type: in vivo, humans; conditions: estimated; 15 mg orally administered twice daily
[2] = system: TDP-43; experiment: Soluble and insoluble fractions of TDP-43 in TDP-43-transfected Neuro2a cells, Western blot (Example 2); type: cell-based, Mouse; conditions: 10 µmol/L added 6 hours after transfection, cultured for 12 hours; for soluble fractions versus insoluble fractions of TDP-43: Figure 5; for proportion of insoluble fractions based on a total number of soluble fractions and insoluble fractions of TDP-43: Figure 6
Method: (§1) Mouse neuroblastoma (Neuro2a) cells were seeded on a dish. The Neuro2a cells were cultured in a culture medium containing DMEM+10% FBS at 37°C in the presence of 5% CO2. On the first day after seeding, differentiation into neurons was initiated. Differentiation into neurons was performed in a culture medium containing DMEM+2% FBS+20 µmol/L retinoic acid. On the fourth day after seeding, cells were transfected with synthesized TDP-43 mRNA by a lipofection method. Cells were sampled at 6 hours, 9 hours, 12 hours, 15 hours, 18 hours, and 21 hours after transfection. […] For sampling, cells were lysed in an RIPA buffer and centrifuged at 22,000xg for 30 minutes at 4°C, the supernatant was used as the soluble fraction, the precipitate was used as the insoluble fraction, and equal volumes of a 2×SDS sample buffer were added to the respective fractions and heated at 95°C for 5 minutes to prepare electrophoresis samples. The electrophoresis samples were subjected to electrophoresis using a polyacrylamide gel, TDP-43 was then transferred to a PVDF membrane. TDP-43 was detected through chemiluminescence using anti-TDP-43 antibodies as primary antibodies and HRP-conjugated anti-rabbit antibodies as secondary antibodies. […] The insoluble fractions of TDP-43 indicate the aggregation of TDP-43.
Neuro2a cells were seeded on a dish. On the first day after seeding, differentiation into neurons was initiated. On the fourth day after seeding, cells were transfected with the TDP-43 gene.

[3] = cited from earlier work
[4] = system: TDP-43; experiment: Soluble and insoluble fractions of TDP-43 in motor neurons derived from iPS cells of ALS patients, Western blot (Example 3); type: cell-based, human; conditions: 10 µmol/L, cultured for 20 days; for bands for insoluble fractions of TDP-43: Figure 7; for average proportion of insoluble fractions of TDP-43: three experiments, Figure 8
[5] = cited from earlier work; remark: listed apart in the source
[6] = system: TDP-43; experiment: Soluble and insoluble fractions of TDP-43 in motor neurons derived from iPS cells of healthy subjects, Western blot (Example 3); type: cell-based, human; conditions: 10 µmol/L, cultured for 20 days, Figure 7
Method: 100 µL of an EHS-gel basement membrane matrix (commercially available from FUJIFILM Wako Pure Chemical Corporation) was added to 12.5 mL of DMEM (Dulbecco's Modified Eagle Medium, commercially available from FUJIFILM Wako Pure Chemical Corporation) and mixed, and the mixture was added to a 24-well plate at 600 µL per well. The plate was left at room temperature for 2 hours, and the solution was then removed from the wells. Next, 600 µL of DMEM was added to each well, and the plate was left at room temperature for 2 hours.
Motor neurons derived from iPS cells of healthy subjects and motor neurons derived from iPS cells of ALS patients were obtained from iXCells Biotechnologies. The motor neurons were quickly thawed in a thermostatic oven at 37°C and suspended in a motor neuron maintenance culture medium (iXCells Biotechnologies). […]
The soluble protein fractions and the insoluble protein fractions were subjected to SDS-PAGE, and the proteins were transferred to a PVDF membrane. […] Next, the PVDF membrane was washed three times with a buffer solution, 1 mL of a luminescence reagent (ImmunoStar LD, commercially available from FUJIFILM Wako Pure Chemical Corporation) was then used to induce luminescence from the labeled secondary antibodies, and the PVDF membrane was imaged.

[7] = system: Neuro2a cells transfected with the TDP-43 gene; experiment: Inhibition of cell death in neuron-differentiated Neuro2a cells transfected with the TDP-43 gene (Example 1); type: cell-based, Mouse; conditions: evaluated 7 days after transfection, Figures 3 and 4
Method: as §1, with “TDP-43. […]” for “TDP-43.”
The proportion of dead cells was evaluated 7 days after the cells were transfected with the TDP-43 gene.

SMILES	trough value [1] [nmol/L]	soluble fractions versus insoluble fractions of TDP-43 [2]	proportion of insoluble fractions based on a total number of soluble fractions and insoluble fractions of TDP-43 [2]	Cmax ([3]; 15 mg orally administered to humans, read-out: maximum blood concentration (Cmax)) [µM]	half-life ([3]; in vivo)	bands for insoluble fractions of TDP-43 [4]	average proportion of insoluble fractions of TDP-43 [4]	side effects ([5]; 150 mg administered to humans)	side effects ([5]; 250 mg administered to humans to treat tuberculosis)	bands for insoluble fractions of TDP-43 [6]	effect of inhibiting cell death [7]
N[C@@H]1CONC1=O [D-cycloserine, (4R)-4-Amino-1,2-oxazolidin-3-one]	> 128	the number of soluble fractions of TDP-43 was larger than the number of insoluble fractions of TDP-43	less than half	~5.6	about 10 hours	bands for insoluble fractions were unclear	about 17.4%	headaches	serious side effects such as epileptiform seizure and mental confusion	bands for insoluble fractions were unclear	cell death was inhibited; also recorded: exhibited an effect of inhibiting cell death in a concentration-dependent manner
N[C@H]1CONC1=O [L-cycloserine, (4S)-4-amino-1,2-oxazolidin-3-one]		the number of soluble fractions of TDP-43 was larger than the number of insoluble fractions of TDP-43	less than half								exhibited an effect of inhibiting cell death in a concentration-dependent manner
CCCN(CCC)CCc1cccc2c1CC(=O)N2 [ropinirole]						bands for insoluble fractions were unclear	about 19.3%			bands for insoluble fractions were unclear	
